Test results taken from patent US6441042B1 (dated 2002).

| SMILES | melting point [°C] |
| --- | --- |
| CCC[C@H](CC(=O)NO)C(=O)N[C@H](C(=O)NC)C(C)(C)C | 200 |
| CCCC[C@H](CC(=O)NO)C(=O)N[C@H](C(=O)N(C)C)C(C)(C)C | 165 to 166 |
